Measurements as given in patent EP4644375A1, “SUBSTITUTED HYDROQUINOLINES FOR THE TREATMENT OF GLIOBLASTOMA MULTIFORME” (Molius Saglik Teknolojileri Anonim Sirketi, priority 2024, dated 2025).

Experiments:
[1] = tested on: U138-MG human glioma cell; assay: Cell proliferation analysis (MTT); format: cell-based; conditions: 10 µM, two days, MTT; for activity at 10 µM / inhibition at 10 µM: Homo sapiens, 48 h
U87-MG human glioma cell = assay: Cell proliferation analysis (MTT); format: cell-based; conditions: 10 µM, two days, MTT; for activity at 10 µM / inhibition at 10 µM: Homo sapiens, U-87 MG, 48 h
[2] = PAMPA permeability assay, gastrointestinal mimicking membrane; conditions: 500 µM, 18 hours, 37 °C
Description: Permeability assay and analyses were performed according to the manufacturer's instructions. […] After the loading of lipid solutions into the pores, all drug solutions and the permeability controls were put onto the lipid membrane in donor wells. The permeability assay was performed for 18 hours at 37 °C incubator. All samples were collected from acceptor wells after the incubation period was finished and the absorbance values were measured with equilibrium standards for normalization.

GBM xenograft rat model = assay: In vivo GBM rat model: MRI analysis of tumor volumes; conditions: GBM rats, 30 mg/kg oral, 5 days, MRI 14th vs 28th day
Description: An in Vivo study was performed to assess the therapeutic potential of TR-G002, TR-G045, TR-G053, TR-G066, TR-G071 and TR-G091 in the GBM xenograft rat model when administered orally by gavage for five consecutive days. 152 female rats of the Sprague Dawley strain were allocated to the study. Six groups of sixteen females were given dose of 30 mg/kg of the respective target compounds. […] The study design can be seen in Fig. 11 and Table 10.
Female Sprague Dawley rats (age: 6-8 weeks; weight: 255-310 g; ATADEM, Erzurum, Turkey) were utilized in the study. Rats underwent anaesthesia with 5% isoflurane, maintained at 2% isoflurane (1 L/min oxygen), and were positioned in a stereotactic frame for cell implantation (Stoelting Co., IL). […] A burr hole was drilled 1-mm anterior and 3-mm lateral to the right bregma. A microsyringe (Hamilton 1700 series) containing 5×10^4 U87-MG cells suspended in 5 µL of medium at 37 °C was advanced to a depth of 4 mm into the brain. The cells were injected at a rate of 3 µL/ min. Bone wax was used to fill the burr hole to prevent cell suspension reflux. The incision was sutured, and 1 mL of Meloxicam (5 mg/mL; Metacam, Boehringer Ingelheim Vetmedica, Ingelheim, Germany) was administered via a subcutaneous injection.
Fourteen days after inoculation, tumor development in rats was visualized and confirmed through magnetic resonance imaging (MRI). Rats confirmed to have developed tumors were then distributed into six different groups for treatment. […] 9 days after the final treatment dose, the rats underwent another MRI scan and blood and brain samples were taken under anaesthesia.
The anaesthetic was administered via an intraperitoneal route on animals fixed in the supine position with parallel hind limbs. MRI was performed using a 3 Tesla clinical scanner (Magnetom Skyra; Siemens Healthineers, Erlangen, Germany). Rats were placed in the prone position. T2-SPACE (sampling perfection with application-optimized contrast using different flip angle Evolution) sequence was obtained to view the brain in coronal and transverse planes. (TR: 6000 ms, TE: 100 ms, voxel size: 0.5 × 0.5 × 1 mm, 34 slices, slice thickness: 2 mm, slice spacing: 0.6 mm). The volume measurements of brain tumors were performed manually. One radiologist calculated the tumour volume - manually measuring tumour length (L), width (W), and height (H) - and then calculated the tumour volume using the formula 0.5236 × L × W × H (Stuppner S et al., 2020).

SMILES	activity at 10 µM [1] [%]	inhibition at 10 µM [1] [%]	activity at 10 µM (U87-MG human glioma cell) [%]	inhibition at 10 µM (U87-MG human glioma cell) [%]	permeability through the gastrointestinal mimicking membrane [2]	Cell Proliferation (%) [1] [%]	Cell Proliferation (%) (U87-MG human glioma cell)	tumor size (GBM xenograft rat model)
Cc1ccc(F)cc1NC(=O)Oc1ccc2c(c1)CCC(=O)N2 [TR-G097, 2-oxo-1,2,3,4-tetrahydroquinolin-6-yl (5-fluoro-2-methylphenyl)carbamate]	73	27	79	21	highly permeable			
C=CCOc1ccc2c(c1)CCC(=O)N2 [TR-G014, 6-(allyloxy)-3,4-dihydroquinolin-2(1H)-one]	51	49	82	18	highly permeable			
O=C(COc1ccc2c(c1)CCC(=O)N2)N/N=C/c1ccc(F)cc1 [TR-G128, (E)-N'-(4-fluorobenzylidene)-2-((2-oxo-1,2,3,4-tetrahydroquinolin-6-yl)oxy)acetohydrazide]	68	32	68	32	highly permeable			
CN(C(=O)Oc1ccc2c(c1)CCC(=O)N2)c1ccccc1 [TR-G072, 2-oxo-1,2,3,4-tetrahydroquinolin-6-yl methyl(phenyl)carbamate]	85	15	85	15	highly permeable			
C#CCOc1ccc2c(c1)CCC(=O)N2 [TR-G006, 6-(prop-2-yn-1-yloxy)-3,4-dihydroquinolin-2(1H)-one]	86	14	86	14	highly permeable			
O=C(COc1ccc2c(c1)CCC(=O)N2)NN=Cc1cccs1 [TR-G024, 2-((2-oxo-1,2,3,4-tetrahydroquinolin-6-yl)oxy)-N'-(thiophen-2-ylmethylene)acetohydrazide]	70	30	80	20	highly permeable			
O=C1CCc2cc(OCCCCc3nnnn3C3CCCCC3)ccc2N1Cc1ccccc1 [TR-G110, 1-benzyl-6-(4-(1-cyclohexyl-1H-tetrazol-5-yl)butoxy)-3,4-dihydroquinolin-2(1H)-one]	69	31	58	42				
CS(=O)(=O)Oc1ccc2c(c1)CCC(=O)N2 [TR-G057, 2-oxo-1,2,3,4-tetrahydroquinolin-6-yl methanesulfonate]	99	1	85	15				
O=C(COc1ccc2c(c1)CCC(=O)N2)N/N=C/c1ccccc1 [TR-G035, (E)-N'-benzylidene-2-((2-oxo-1,2,3,4-tetrahydroquinolin-6-yl)oxy)acetohydrazide]	74	26	86	14				
CN1CCN(c2ccc(NC(=O)COc3ccc4c(c3)CCC(=O)N4)cc2)CC1 [TR-G043, N-(4-(4-methylpiperazin-1-yl)phenyl)-2-((2-oxo-1,2,3,4-tetrahydroquinolin-6-yl)oxy)acetamide]	74	26	73	27				
O=C1CCc2cc(OCCCCc3nnnn3C3CCCCC3)ccc2N1Cc1ccc(Cl)cc1 [TR-G111, 1-(4-chlorobenzyl)-6-(4-(1-cyclohexyl-1H-tetrazol-5-yl)butoxy)-3,4-dihydroquinolin-2(1H)-one]		9		32		91	68	
O=C1CCc2cc(OS(=O)(=O)c3ccc([N+](=O)[O-])cc3)ccc2N1 [TR-G046, 2-oxo-1,2,3,4-tetrahydroquinolin-6-yl 4-nitrobenzenesulfonate]	76	24	60	40				reduced the tumor size
C=CCCCOc1ccc2c(c1)CCC(=O)N2 [TR-G144, 6-(pent-4-en-i-yloxy)-3,4-dihydroquinolin-2(1H)-one]	70	30	61	39				
Cc1ccc(COc2ccc3c(c2)CCC(=O)N3)cc1 [TR-G041, 6-((4-methylbenzyl)oxy)-3,4-dihydroquinolin-2(1H)-one]	74	26	70	30				
O=C(COc1ccc2c(c1)CCC(=O)N2)N/N=C/C1CCCCC1 [TR-G029, (E)-N'-(cyclohexylmethylene)-2-((2-oxo-1,2,3,4-tetrahydroquinolin-6-yl)oxy)acetohydrazide]	68	32	82	18				
O=C1CCc2cc(OS(=O)(=O)c3ccc(C(F)(F)F)cc3)ccc2N1 [TR-G073, 2-oxo-1,2,3,4-tetrahydroquinolin-6-yl 4-(trifluoromethyl)benzenesulfonate]	94	6	87	13				
O=C(COc1ccc2c(c1)CCC(=O)N2)Nc1ccc(N2CCOCC2)cc1 [TR-G120, N-(4-morpholinophenyl)-2-((2-oxo-1,2,3,4-tetrahydroquinolin-6-yl)oxy)acetamide]	67	34	68	33				
O=C1CCc2cc(OCc3cc(-c4ccc(Cl)cc4)no3)ccc2N1 [TR-G084, 6-((3-(4-chlorophenyl)isoxazol-5-yl)methxy)-3,4-dihydroquinolin-2(1H)-one]		30		35		71	65	
Cc1ccc(CN2C(=O)CCc3cc(OCCCCc4nnnn4C4CCCCC4)ccc32)cc1 [TR-G104, 6-(4-(1-cyclohexyl-1H-tetrazol-5-yl)butoxy)-1-(4-methylbenzyl)-3,4-dihydroquinolin-2(1H)-one]	83	17	49	51				
CC(=O)c1ccc(NC(=O)COc2ccc3c(c2)CCC(=O)N3)cc1 [TR-G064, N-(4-acetylphenyl)-2-((2-oxo-1,2,3,4-tetrahydroquinolin-6-yl)oxy)acetamide]	78	22	70	30				
O=C(COc1ccc2c(c1)CCC(=O)N2)N/N=C/c1cccc2ccccc12 [TR-G141, (E)-N'-(naphthalen-1-ylmethylene)-2-((2-oxo-1,2,3,4-tetrahydroquinolin-6-yl)oxy)acetohydrazide]	65	35	53	47				
